Measured values from patent US20080118980A1, “Estrogen Enhancing Differentiation of Human Mesenchymal Stromal Cells and Adipose-derived Stromal Cells” (The Board of Trustees of the University of Illinois,, priority 2006, published 2008).

Key:
Type in all cases: cell-based
[1] = tested on: rat bone MSCs; test: Proliferation of rat bone MSCs with E2 modulation (MTS, Example 4); conditions: for cell proliferation (absorbance at 540 nm) vs control: 10^−9 and 10^−6 M E2, day 3, FIG. 9A; for E2 concentration of proliferation peak: day 3
Method: Three month-old, male and female Fisher 344 rats (Charles River Lab., Wilmington, Mass.) were purchased and euthanized by CO^2 inhalation. The tibias and femurs were dissected and bone marrow plugs were flushed out with a syringe (18-gauge needle), and filled with a basic medium consisting of DMEM, 10%FBS and 1% antibiotic-antimycotic. Cells were counted on a hemacytometer, plated at 5×10^7 cells/100-mm petri dish and incubated with basic DMEM medium at 37° C. in 5% CO2. The MSCs were isolated by removing unattached cells via medium exchange. The MSCs were incubated up to 80% confluence and then subcultured at a density of 10^6/100-mm dish. Prior to confluence, the MSCs were trypsinized, counted and used for measuring proliferation rate using E2 modulation.
In order to analyze the estrogen function on cell proliferation, 500 of passage-1 MSCs were placed into each well of 96-well plates and exposed to basic medium supplemented with different concentrations of E2 (10^−6M to 10^−9M) (Sigma, St. Louis, Mo.). On day 3, the cell proliferation with different estrogen modulations were quantified using a MTS calorimetric method according to manufacturer's manual (CellTiter 96® Queous One Solution Cell Proliferation Assay, Promega, Madison, Wis.)

[2] = tested on: rat bone MSC-based TE constructs; test: Osteogenic differentiation of rat bone MSC-based TE constructs with E2 (Example 4); conditions: 14 days; for calcium deposition: FIG. 9C
Method: TE constructs were created by seeding passage-1 MSCs on gelatin sponges (Gelfoam@, Pharmacia & Upjohn, Kalamazoo, Mich.). The sponge were trimmed into 4×4×4 mm^3 and pre-wet with DMEM medium for 1 hr. The sponges were transferred to MSC suspension with a cell density of 2×10^6 cells/ml under a slight vacuum created by 20 ml syringe, followed by incubation in 5% CO2 at 37° C. for two hours. Beginning the next day as day-0, TE constructs were respectively exposed to the osteogenic differentiation medium supplemented with different concentrations of E2 (10^−6M to 10^−12M). The osteogenic differentiation medium consists of basic medium supplemented with 100 nM dexamethasone, 10 mM β-glycerophosphate, and 0.05 mM ascorbic acid-2-phosphate. After two weeks of differentiation, constructs of each experimental group were collected and quantitatively measured for osteogenic differentiation.
TE constructs were immersed in 0.2 ml of 1% Triton-X100 and homogenized with sonication. The DNA concentration of cell lysate was measured fluorometrically using Hoechst dye 33258 (Bio-Rad, Hercules, Calif.). The fluorescent optical density of each sample was measured using a fluorometer having an excitation wavelength of 360 nm and an emission wavelength of 460 nm. The amount of DNA in each sample was determined by using a prepared standard curve. ALP and calcium content were measured by spectrophotometry with a calorimetric kit according to the manufacturers' instructions (Sigma, St. Louis, Mo.).

[3] = tested on: human bone marrow mesenchymal stem cells (MSCs); test: Proliferation of human bone marrow MSCs in basic medium with E2 or E3 (MTS, Example 3)
Method: This study investigates the mitogenic effects of estrogen receptor ligands on human bone marrow MSCs that is not contacted with osteogenic or adipogenic medium. Purified human bone marrow mesenchymal stem cells (MSCs) were purchased commercially. MSCs were respectively exposed to basic medium (DMEM+10% FBS+1% antibiotics), and basic medium supplement with 10^−6 and 10^−9 M 17-β estradiol (E2) and estriol (E3) for approximately one week. Then, various cells were plated into 96-well plates in 500 cells/well and continued to be exposed to the media. After 4 days, cell densities were measured by MTS methods and compared to initial densities. FIG. 8 illustrates the increase of the number of MSCs after being treated with basic medium and basic medium supplemented with E2 or E3.

[4] = tested on: human ASCs; test: Osteogenic differentiation of human ASCs modulated by E2 (Example 1)
Description: Human bone marrow MSCs were provided by the Center for Gene Therapy of Tulane University. The MSCs were isolated from bone marrow cells donated by a healthy adult volunteer. The passage-1 cells were recovered and expanded by culture in a basic medium composed of DMEM, 10% FBS and 1% antibiotic-antimycotic. Human ASCs were isolated from a healthy person with a lipo-aspirated surgery. The abdomen subcutaneous adipose tissue was finely minced and then digested with 0.075 wt % collagenase type I at 37° C. for 45 min. The cells were then collected by filtration with a cell strainer with pore size of 100 μm diameter. The ASCs were expanded in basic DMEM medium. Upon reaching 80-90% confluence of human MSCs and ASCs, the cells were trypsinized, counted, and subcultured at a density of 10^5 cells/100 mm dish. The cells used for study were passage-2. For osteogenic differentiation, the cells were seeded at a cell density of 10^4 cells/cm2 on 12-well plates and 100-mm petri dishes. Upon reaching 70% confluence, counting as day-0, the cells were exposed to osteogenic differentiation medium supplemented with either 10 nM or 10 pM E2. The osteogenic differentiation medium consisted of basic medium supplemented with 100 nM dexamethasone, 10 mM β-glycerophosphate, and 0.05 mM ascorbic acid-2-phosphate. At the defined time, the cells were collected and analyzed for osteogenic gene expression and differentiation potentials.
The cultured cells in 12-well plates were washed twice with PBS, suspended and lysed in 1% Triton-X100 solution. The collected cells were subsequently homogenized using sonication. The DNA content was determined by a fluorometric assay (Bio-Rad). ALP and calcium content were measured by spectrophotometry with a calorimetric kit according to the manufacturers' instructions (Sigma).
RNA was extracted from differentiated cells using TRizol reagent (Invitrogen). 5 μg of total RNA was converted to single stranded cDNA using a commercial cDNA synthesis kit. Aliquots of the cDNA were amplified with Ampli-Taq DNA polymerase for ALP, osteocalcin (OCN), core binding factor alpha1 (cbfa1), peroxisome proliferator activated receptors gamma (PPARγ)-2, estrogen receptors (ER) alpha (α) and beta (β), and housekeeping gene GAPDH. 40 cycles were used, each consisting of 45 sec of denaturation at 95° C., 45 sec of annealing at 58° C., and 1 min of polymerization at 72° C.

SMILES: C[C@]12CC[C@@H]3c4ccc(O)cc4CC[C@H]3[C@@H]1CC[C@@H]2O [E2, 17-β estradiol]
- cell proliferation (absorbance at 540 nm) vs control ([1]; female MSCs): significantly higher
- E2 concentration of proliferation peak ([1]; female bone MSCs): 10^−6 M
- cell proliferation (absorbance at 540 nm) vs control ([1]; male MSCs): significantly higher
- E2 concentration of proliferation peak ([1]; male bone MSCs): 10^−9 M
- peak concentration of E2 to increase ALP activity ([2]; both male and female MSCs): 10^−10 M
- calcium deposition ([2]; female MSC-derived constructs): does not appear to have similar effects
- calcium deposition ([2]; male MSC-derived constructs): may also improve
- ALP activities of constructs ([2]; male and female constructs, dose-dependent, FIG. 9B): increased
- cell proliferation (MTS assay and cell counting) ([3]; 10^−6 and 10^−9 M, about one week then 4 days in 96-well plates, FIG. 8): greatly increased
- differentiation capabilities (adipogenic and osteogenic) of modulated MSCs ([3]; vs controls): maintain their differentiation capabilities
- calcium content ([4]; FIG. 2F): significantly increased
- ALP activities ([4]; after 14 days, FIG. 2E): significantly improved
- OCN expression (RT-PCR) ([4]; day 7, E2 10 nM): only densely expressed
- cbfa-1 expression (RT-PCR band) ([4]; day 7, vs differentiation without estrogen supplement): denser band
- cell proliferation (amount of DNA) during osteogenesis ([4]; higher dose of E2, FIG. 2D): inhibits
- ALP and von Kossa staining ([4]; osteogenic differentiation medium supplemented with E2 (10 nM or 10 pM)): denser color
